Reference: publication PMC7463714, “Design and Synthesis of Novel Hybrid 8-Hydroxy Quinoline-Indole Derivatives as Inhibitors of Aβ Self-Aggregation and Metal Chelation-Induced Aβ Aggregation” (Molecules, 2020)
“Also recorded” adds a separate entry of the source.

What was measured:
[1] = Metal-chelation study by UV-vis spectroscopy and Job's method; assay type: physicochemical; conditions: compound 50 µM, HEPES buffer pH 7.4, 30 min, shift from 252 nm
Method: Furthermore, the stoichiometry of formation of metal complexes 18f-Cu^2+ and 18f-Zn^2+ was also determined by using Job’s method (Figure 6). The […] shown in Figure 6A,B at 0.6 and 0.5 imply a stoichiometry of 1.5:1 for 18f-Cu^2+ and 1:1 for 18f-Zn^2+.
The chelating studies were performed with a UV–vis spectrophotometer. The absorption spectra of test compound (50 μM, final concentration) alone or in the presence of CuSO4, FeSO4, or ZnCl2 (50 μM, final concentration) in buffer (20 mM HEPES, 150 mM NaCl, pH 7.4) were incubated for 30 min and then recorded at room temperature, respectively. For the stoichiometry of the test compound–Cu^2+ complex or the test compound–Zn^2+ complex, a fixed amount of test compound (50 μM) was mixed with increasing amounts of copper ion or Zn ion (0–100 μM), and the UV–vis difference spectra were analyzed to determine the ratio of ligand/metal ion in the complex.

HEK-tau cells = assay: Protein aggregation in HEK-tau cells (ThT staining); assay type: cell-based, Human; conditions: 1 µM, 48 h, 37 °C; compared to clioquinol (1)
Method: In our study, we have shown that restoring metal homeostasis by treatment with hybrid 8-hydroxyquinoline-indole analogs reduces tau- and amyloid-mediated protein aggregation, and their associated neurotoxicity. Analogs 7a–7d, 18c–18f, and 18h were evaluated for their ability to reduce protein aggregation in HEK-tau cells. HEK-tau cells were exposed to the above Aβ1–42 aggregation inhibitors and parent drug clioquinol (1) at 1 µM for 48 h at 37 °C. Cells were assessed for amyloid deposits by staining with 0.1% w/v thioflavin T, counterstaining nuclei with DAPI, and mean ThT fluorescence signal per nucleus was calculated over multiple fields. All the analogs reduced fluorescence intensity (indicative of protein aggregation) by 26–62% (P < 0.001 by 2-tailed t-test).
(§1) Human Embryonic Kidney cells that overexpress tau protein (HEK-tau) cells or SY5Y neuroblastoma cells that express a familial-AD mutant of amyloid precursor protein (SY5Y-APPSw cells) were each seeded in 96-well plates at 8000 cells per well. After 24 h, cells were supplemented with test compound at 1 µM after diluting with medium. Vehicle only control was also included for each experiment. The cells were cultured for an additional 48 h at 37 °C. Both the cell lines were able to reach approximately 80% confluency in 48 h. Cells were assessed for amyloid deposits by staining with 0.1% w/v ThT, counterstaining nuclei with DAPI, and calculating mean ThT fluorescence signal per nucleus over multiple fields.

SY5Y-APPSw cells = assay: Protein aggregation in SY5Y-APPSw cells (ThT staining); assay type: cell-based; conditions: 1 µM, 48 h, 37 °C; compared to clioquinol (1)
Method: In another study compounds 7a–7d, 18c–18f, and 18h were also evaluated for their ability to reduce protein aggregation in SY5Y-APPSw cells. SY5Y-APPSw cells were exposed to the above protein aggregation inhibitors and parent compound 1 at 1 µM for 48 h at 37 °C. Cells were assessed for amyloid deposits by staining with 0.1% w/v ThT, counterstaining nuclei with DAPI, and mean ThT fluorescence signal per nucleus calculated over multiple fields. All the analogs reduced fluorescence intensity (indicative of protein aggregation) by 22–67% (P < 0.001 by 2-tailed t-test). […] Thioflavin-T fluorescence assays for in vitro amyloid aggregation and cell culture models of amyloid aggregation overlap but are not identical. This is due to the fact that thioflavin in cell-culture stains not just amyloid aggregates but also other amyloid-like fibrillar structures. Another important difference is that in vitro aggregation is assessed after 24 h, whereas aggregation in cell culture is assessed after 48 h.
as §1

Aβ1–42 = molecular target: T1, Aβ1–42 (Homo sapiens, UniProt P05067); assay: Self-induced Aβ1–42 aggregation, thioflavin T (ThT) fluorescence assay; assay type: biochemical
T1 construct: Aβ1–42 (Adooq Bioscience, CA, USA); purchased Adooq Bioscience
Method: The novel hybrid 8-hydroxyquinoline-indole derivatives, 7a–7e, 12a, 12b, and the (8-hydroxyquinolin-2-yl)methyl-4-(1H-indole-2-carbonyl)piperazine-1-carboxylate analogs 18a–18h were evaluated for inhibitory activity against self-induced Aβ1–42 aggregation at five different concentrations (0.3, 1.0, 3, 9 and 27 µM) with 25 µM Aβ1–42, utilizing a thioflavin T (ThT) fluorescence assay with clioquinol, 1 as a positive control (Figure 3). In the absence of inhibitor, the self-induced Aβ1–42 aggregation ThT fluorescence was recorded as 115 arbitrary units (a.u.). The self-induced Aβ1–42 aggregation results for all the above synthetic analogs from the ThT fluorescence assay are shown in Table 1. […] The thioflavin T (ThT)-fluorescence assay was used to measure the inhibition of Aβ aggregation. Aβ1–42 (Adooq Bioscience, CA, USA) was pretreated with 1 mL of hexafluoroisopropanol (HFIP) to afford a stock solution, which was aliquoted into small samples. The solvent was evaporated at room temperature, and samples were stored at −80 °C. For Aβ1–42 aggregation inhibition experiments, phosphate buffer (pH 7.4) was added to the Aβ stock solution to afford a 50 µM concentration before use. A mixture of the Aβ1–42 peptide (10 µL, 25 µM final concentration) with or without the test compound (10 µL; 0.3, 1.0, 3, 9, and 27 µM) was incubated at 37 °C for 48 h. Blanks using phosphate buffer (pH 7.4) instead of Aβ, with or without test compound, were also assessed. Then 50 mM glycine-NaOH buffer (pH 8.0) containing ThT (5 µM) was added to 20 µL of the sample to afford a final volume of 200 µL. The fluorescence intensities were recorded (excitation, 450 nm; emission, 485 nm). The fluorescence intensities were background corrected to the no enzyme control and 100% of intensity reflected no inhibition of aggregation. To obtain the normalized amyloid aggregation inhibition relative to the control group, the amyloid aggregation/cell values were further divided by the total amyloid fluorescence of the control group. Using GraphPad Prism, the amyloid aggregation values (relative to control group) were entered along the corresponding concentrations for the triplicates and then a log transformation was obtained. Using the dose–response simulation module in GraphPad Prism, nonlinear regression fit (curve) was then generated for each small molecule with various concentrations used. Curves were then compared to determine if they were statistically different, by performing the best-fit values of selected unshared parameters between data sets and extra sum-of-squares F test, allowing for selection of the simpler model unless the P value was less than 0.05. The logEC50 output parameter was then selected to obtain the EC50 for each of the dose–response curves for the small molecules.

T1 sequence (P05067 672-713 limits assumed): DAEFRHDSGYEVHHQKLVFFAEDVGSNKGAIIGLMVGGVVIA

## COc1ccc2[nH]c(C(=O)N3CCN(C(=O)OCc4ccc5c(Cl)cc(Cl)c(O)c5n4)CC3)cc2c1 [Compound 18f, (5,7-Dichloro-8-hydroxyquinolin-2-yl)methyl-4-(5-methoxy-1H-indole-2-carbonyl)piperazine-1-carboxylate]
[1]; CuSO4 50 µM
  maximum absorption wavelength in the presence of Cu^2+: 274 nm
[1]; FeSO4 50 µM
  maximum absorption wavelength in the presence of Fe^2+: 255 nm
[1]; ZnCl2 50 µM
  maximum absorption wavelength in the presence of Zn^2+: 269 nm
HEK-tau cells
  protein aggregation inhibition in HEK-tau cells, result in words: most effective; also recorded: effective in reducing protein aggregation
SY5Y-APPSw cells
  protein aggregation inhibition in SY5Y-APPSw cells, result in words: effective in reducing protein aggregation
Aβ1–42; 25 µM Aβ1–42, compound 0.3-27 µM, 37 °C, 48 h, ThT fluorescence, read-out: EC50 against self-induced Aβ1–42 aggregation
  EC50: 1.08 µM
Aβ1–42; relative to 1
  improvement in inhibitory potency over clioquinol (1), Aβ1–42 self-aggregation: 10 fold
